No end group written: not given here. *: point of attachment. Biotin = O=C1N[C@H]2[C@H](CS[C@H]2CCCCC(=O)*)N1

We go through three compounds from patent US20110236406A1, “IMMUNOGENIC COMPOSITIONS COMPRISING HMGB1 POLYPEPTIDES” (MedImmune, LLC, priority 2004, published 2011).

Assay [1] has as its system murine BM-DCs. Description: Phenotypic maturation of murine BM-DCs (surface markers, FACS). It counts as cell-based, mouse. The conditions noted are these: CD11c+ gated BM-DCs, 48 h, peptides 200 μg/ml. Here is the method:
(§1) Bone marrow-derived DCs (BM-DC) were generated using modifications of the original method described by Inaba et al (42). In brief, bone marrow suspensions were incubated with red cell lysis buffer (PUREGENE™ RBC Lysis Solution, Gentra Systems, Minneapolis, Minn.) to remove red blood cells. After washing in media, lymphocytes and Ia-positive cells were killed with a cocktail of mAbs and rabbit complement for 60 min at 37° C. The mAbs were GK1.5 anti-CD4, TIB211 anti-CD8, TIB 120 anti-Ia, and TM 146 anti B220 (The Abs were kindly provided by Dr. Ralph Steinman). The cells were subsequently cultured in media containing 5% FCS and 10 ng/ml recombinant mouse GM-CSF (R&D Systems; Minneapolis, Minn.) for 7 days. For some experiments the cells were further purified at day 7 using CD11c^+-microbeads (Miltenyi Biotech., Auburn, Calif.) according to the manufacturer's instructions.
(§2) At day 7 of culture, immature DCs were either left untreated, or were stimulated with indicated doses of HMGB1-Bx, HMGB1 peptides, or LPS (E. coli serotype 026:B6, Sigma). In all experiments, DCs were analyzed 48 h after stimulation.
1×10^4 DCs were reacted for at least 20 min at 4° C. in 100 μl of PBS/5% FCS/0.1% sodium azide (staining buffer) with fluorescein isothiocyanate (FITC)-conjugated IgG mAb specific for CD86, CD40 and MHC-II (eBioscience). Cells were then washed 4 times with staining buffer, fixed in 10% formaldehyde in PBS (pH 7.2-7.4) and examined by flow cytometry using a FACScan (BD). In all experiments, isotype controls were included using FITC-conjugated irrelevant mAb of the same Ig class.

Assay [2] concerns human monocyte-derived DCs. Description: Cytokine and chemokine secretion by human immature monocyte-derived DCs (ELISA). It counts as cell-based. Details: key to TNFα / IL-18 / IL-8 / IL-10 / IL-6 / IL-12: + indicates increase; − indicates no change compared to medium. The conditions noted are these: for IL-6 / IL-8 / IL-10 / IL-12 / IL-18 / TNFα: HUMAN DC, ELISA 48 h after exposure, compared to medium. As for the experimental part: (§3) PBMCs were isolated from the blood of normal volunteers (Long Island Blood Services, Melville, N.Y.) over a Ficoll-Hypaque (Amersham Biosciences, Uppsala, Sweden) density gradient. CD14^+ monocytes were isolated from PBMCs by positive selection using anti-CD14 beads (Miltenyi Biotech., Auburn, Calif.) following the manufacturer's instructions. To generate DCs, CD14^+ cells were cultured in RPMI 1640 medium supplemented with 2 mM L-glutamine (GIBCO-BRL Life Technologies; Grand Island, N.Y.), 50 μM 2-mercaptoethanol (Sigma, St. Louis, Mo.), 10 mM HEPES (GIBCO-BRL), penicillin (100 U/ml)-streptomycin (100 μg/ml) (GIBCO-BRL), and 5% human AB serum (Gemini Bio-Products, Woodland, Calif.). Cultures were maintained for 7 days in 6-well trays (3×10^6 cells/well) supplemented with 1000 U GM-CSF per ml (Immunex, Seattle, Wash.) and 200 U IL-4 per ml (R&D Systems; Minneapolis, Minn.) at days 0, 2, 4 and 6.
At day 7 of culture, immature DCs were either left untreated (“immature”, IM), or were stimulated with indicated doses of (i) LPS (E. coli serotype 026:B6, Sigma), (ii) 500 ng/ml of trimeric CD40L (Alexis Biochemicals; San Diego, Calif.), (iii) a cocktail of cytokines (CyC) consisting of IL-6 at 1000 U/ml, TNFα at 10 ng/ml, IL-1β at 10 ng/ml (all from R&D Systems) and prostaglandin E2 (PGE-2) at 1 μg/ml (Sigma), or with (v) non-methylated CpG oligonucleotides (5′ […] 3′) at 30 μg/ml. The sequence of this oligonucleotide is known to induce DC maturation (4), except that it contains an unmodified phosphodiester backbone. In all experiments, DCs were analyzed 48 h after stimulation. All experiments using the rB box were performed in the presence of polymyxin B sufficient to neutralize greater than 10-fold more LPS than present in rB box preparations.
(§4) 48 h post activation, the production of cytokines and chemokines in cell culture supernatants was measured by ELISA (Pierce Boston Technology Center, SearchLight™ Proteome Arrays Multiplex Sample Testing Services, Woburn, Mass.).
as §3, with “DCs, CD 14^+” for “DCs, CD14^+”
as §2
For orientation: In an ELISA, binding on a coated surface is turned into a signal by an enzyme label.

The next assay deals with allogeneic T cells. Description: Mixed leukocyte reaction, stimulated murine BM-DCs with allogeneic T cells. It counts as cell-based, mouse. The conditions noted are these: BM-DCs from C57/BL6 mice; HMGB1-Bx 50 μg/ml, peptides 200 μg/ml, 48 h; 5-day co-culture. Here is the method:
T cells were isolated by negative selection using the mouse SpinSep antibody cocktail from StemCell Technologies (Vancouver, Calif.) according to the manufacturer's instructions. The cell purity of the isolated T cells was routinely ˜99% pure.
To assess levels of T cell activation and proliferation, cells were plated at 10^5 cells per well in a round-bottomed 96-well tray at DC:T cell ratios of 1:120 for 5 days in medium described above. The microcultures were pulsed with (^3H)-thymidine (1 μCi/well) for the final 8 h of culture. Cell cultures were harvested onto glass fiber filters with an automated multiple sample harvester and the amount of isotope incorporation was determined by liquid scintillation β-emission. Responses are reported as mean cpm of thymidine incorporation by triplicate cultures (+/−SEM).

Assay [3] has as its system murine BM-DCs. Description: Cytokine and chemokine secretion by murine bone marrow-derived DCs (ELISA). The class given is cell-based, mouse. Details: key to TNFα / IL-18 / IL-8 / IL-10 / IL-2 / IL-1β / IL-5 / IL-6 / IL-12: + indicates increase; − indicates no change compared to medium. The conditions noted are these: for IL-1β / IL-2 / IL-5 / IL-6 / IL-8 / IL-10 / IL-12 / IL-18 / TNFα: Murine DC, ELISA 48 h after exposure, compared to medium. Here is the method:
as §1, §2, §4

The test system of assay [4] is B box-induced DC maturation. Description: Signalling inhibitors on B box-induced CD83 upregulation and IL-6 secretion in DCs. It counts as cell-based, human. Particulars: 30 min preincubation, then rB box 100 μg/ml, 48 h; SB203580 5 or 20 μM, PD98059 and TPCK 20 or 80 μM. Here is the method:
FIG. 6. B box causes […] upregulation and IL-6 secretion via a p38 dependent pathway. Immature d7 DCs were preincubated for 30 min with (i) DMSO, (ii) PD98059 at 20 (P20) or 80 (P80) μM, (iii) SB203580 at 5 (S5) or 20 (S20) μM, (iv) TPCK at 20 (T20) or 80 (T80) μM and then treated with rB box (100 μg/ml), or cultured with DMSO in the absence of B box (medium). 48 h after activation the DCs were assayed for the surface expression of CD83 by FACS and IL-6 secretion was measured by ELISA. The results shown are mean+/−SEM of three independent experiments using DCs generated from different donors.
The p38 MAPK-specific inhibitor, SB203580, a pyridinyl imidazole compound, the MEK inhibitor PD98059, and N-tosyl-L-phenylalanine chloromethyl ketone (TPCK) were purchased from Sigma. Because these required solubilization in DMSO, DMSO was used as a negative control.
To obtain insight into the roles of ERK and p38 MAPK pathways in B box-induced DC maturation, we used their specific inhibitors, PD98059 and SB203580, respectively. To analyze the role of NF-κB we used TPCK, a serine protease inhibitor that blocks nuclear translocation of Rel/NF-κB by preventing IκB degradation.

The mark [5] stands for this setting: Example 2, peptides 200 μg/ml, HMGB1-Bx 50 μg/ml, polymyxin B, 48 h, FIG. 8C.
Where [6] appears, read: peptides 200 μg/ml, HMGB1-Bx 50 μg/ml, polymyxin B, 48 h.
Where [7] appears, read: peptides 200 μg/ml, polymyxin B, 48 h.

Take “CSEYRPKIKGEHPGLSIG [Hp-106] (Biotin-CSEYRPKIKGEHPGLSIG; listed as Homo sapiens)”: the “surface expression of maturation markers” value in the assay on murine BM-DCs [1] is given as “did not significantly enhance”. Moreover, the IL-6 release result in assay [2] (Example 1, synthetic B box peptides at 200 μg/ml, FIGS. 3D, E) is “specifically stimulated IL-6 release”. Besides, the “secretion of IL-6” value in assay [2] (Example 2, peptides 200 μg/ml, HMGB1-Bx 50 μg/ml, polymyxin B, 48 h, FIG. 8A, 8B) is “induced secretion of IL-6”. In assay [2] (setting [5]), the “secretion of IL-8” value is recorded as “not”, the “secretion of IL-12 (p70)” value is on record as “increased secretion”, the “secretion of IL-18” value is recorded as “increased secretion” and the “secretion of TNF-α” value is given as “increased secretion”. In assay [2], the IL-6 result is reported as “+”, the IL-8 entry is “−”, the IL-10 entry was “−” and the IL-12 entry is on record as “+”. Further, in assay [2], the IL-18 entry is “+” and the TNFα result is recorded as “+”. Besides, the “T cell stimulatory activity of exposed BM-DCs in mixed lymphocyte reaction” value with allogeneic T cells is on record as “activated resting allogeneic T cells”. Also, in the assay with murine BM-DCs [3], the IL-1β entry is “+”, the IL-2 entry is recorded as “+”, the IL-5 result is on record as “+” and the IL-6 result is given as “−”. In the assay with murine BM-DCs [3], the IL-8 result is on record as “+”, the IL-10 result was “−”, the IL-12 entry is given as “+” and the IL-18 result is listed as “+”. The TNFα entry with murine BM-DCs [3] was “+”. Further, the “activation of murine BM-DCs” value in the assay on murine BM-DCs [3] (peptides 200 μg/ml, 48 h) is “activated”. Further, in the assay on murine BM-DCs [3] (setting [6]), the “secretion of IL-2” value is given as “enhanced secretion”, the “secretion of IL-5” value is “enhanced secretion”, the “secretion of IL-8” value is listed as “enhanced secretion” and the “secretion of IL-12 (p70)” value is recorded as “enhanced secretion”. Besides, in the assay with murine BM-DCs [3] (setting [6]), the “secretion of IL-18” value is “enhanced secretion” and the “secretion of TNF-α” value is on record as “enhanced secretion”. For the same compound, the “secretion of IL-10” value in the assay on murine BM-DCs [3] (setting [7]) is listed as “enhanced secretion”.
For “YAFFVQTCREEHKKKHPD (Biotin-YAFFVQTCREEHKKKHPD; listed as Homo sapiens) [Hp-16]”, in the assay with murine BM-DCs [1] (HMGB1-Bx 50 μg/ml), the CD40 expression entry was “strong upregulation”, the CD86 expression entry was “strong upregulation” and the MHC-II expression result is reported as “strong upregulation”. Also, the “activation of human DCs” value in assay [2] (Example 2, peptides 200 μg/ml, 48 h) is on record as “no effect”. Moreover, in assay [2], the IL-6 entry is listed as “−”, the IL-8 result was “−”, the IL-10 result is listed as “−” and the IL-12 entry is recorded as “−”. For the same compound, in assay [2], the IL-18 result was “−” and the TNFα entry is reported as “−”. Further, the “T cell stimulatory activity of exposed BM-DCs in mixed lymphocyte reaction” value with allogeneic T cells is recorded as “activated resting allogeneic T cells”. Also, in the assay on murine BM-DCs [3], the IL-1β result is on record as “+”, the IL-2 result is given as “+”, the IL-5 result is on record as “+” and the IL-6 result was “−”. Besides, in the assay with murine BM-DCs [3], the IL-8 result is “−”, the IL-10 result is “−”, the IL-12 entry is on record as “+” and the IL-18 entry was “+”. Also, in the assay with murine BM-DCs [3], the TNFα entry is given as “−”. Also, in the assay on murine BM-DCs [3] (peptides 200 μg/ml, 48 h), the “activation of murine BM-DCs” value is “activated”. Besides, in the assay on murine BM-DCs [3] (setting [6]), the “secretion of IL-2” value was “enhanced secretion”, the “secretion of IL-5” value is listed as “enhanced secretion”, the “secretion of IL-12 (p70)” value is given as “enhanced secretion” and the “secretion of IL-18” value was “enhanced secretion”. In addition, the “secretion of IL-10” value with murine BM-DCs [3] (setting [7]) is “enhanced secretion”.
As for `C[S+]([O-])c1ccc(-c2nc(-c3ccncc3)c(-c3ccc(F)cc3)[nH]2)cc1` (centres unmarked) [SB203580], in assay [4], the “B box induced secretion of IL-6” value was “downregulated” and the “B box-induced upregulation of CD83” value is reported as “completely abrogated”.
